System: 966289-007-R4-J1-PDC complex spheroid viability
Experiment: Anticancer human tumor 966289-007-R4-J1-PDC patient-derived pancreatic adenocarcinoma cell line growth inhibition [GQUAD]
Conditions: for IC50: curve of first compound; for viability, T/C: stronger effect = lower value
Method in brief: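 Multi-cell-type spheroids of tumor cells with HUVEC and mesenchymal stem cells, treated with drug combinations. Concentrations descend in half-log steps from near clinical Cmax, or from 10 microM where Cmax is unknown; viability read-out.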

[1] = second compound 0.0316 µM, first compound 0.0316 µM
[2] = second compound 0.0316 µM, first compound 0.316 µM
[3] = second compound 0.1 µM, first compound 0.0316 µM
[4] = second compound 0.1 µM, first compound 0.316 µM
[5] = second compound 0.316 µM, first compound 0.0316 µM
[6] = second compound 0.316 µM, first compound 0.316 µM
[7] = second compound 1 µM, first compound 0.0316 µM
[8] = second compound 1 µM, first compound 0.316 µM
[9] = second compound 3.16 µM, first compound 0.0316 µM
[10] = second compound 3.16 µM, first compound 0.316 µM
[11] = second compound 10 µM, first compound 0.0316 µM
[12] = second compound 10 µM, first compound 0.316 µM
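Also: spheroids exposed to the agents for seven days before readout.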
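For viability, T/C in this document: percent viability relative to DMSO vehicle control wells taken as 100%.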

`Cc1cccc(N(C)C(=O)C2C(O)CCN2c2nc(C)cc(C(F)(F)F)c2C#N)c1` (centres undefined) + Cc1cnc(CNC(=O)c2c(=O)c3ccc(N4CCCN(C)CC4)nc3n3c2sc2ccccc23)cn1 was tested, and the IC50 (second compound 0.0316 µM) was greater than 10000 nM, the IC50 (second compound 0.1 µM) was less than 31.6 nM and the IC50 (second compound 0.316 µM) was less than 31.6 nM. For the same compound, the IC50 (second compound 1 µM) was less than 31.6 nM, the IC50 (second compound 3.16 µM) was less than 31.6 nM and the IC50 (second compound 10 µM) was less than 31.6 nM. It also gave a viability, T/C [1] of 111%, a viability, T/C (second compound 0.0316 µM, first compound 0.1 µM) of 102% and a viability, T/C [2] of 103%. For the same compound, the viability, T/C (second compound 0.0316 µM, first compound 1 µM) was 102%, the viability, T/C (second compound 0.0316 µM, first compound 3.16 µM) was 110% and the viability, T/C (second compound 0.0316 µM, first compound 10 µM) was 106%. It also gave a viability, T/C [3] of 40.1%, a viability, T/C (second compound 0.1 µM, first compound 0.1 µM) of 30.9% and a viability, T/C [4] of 36.3%. The viability, T/C (second compound 0.1 µM, first compound 1 µM) was 34.9%, the viability, T/C (second compound 0.1 µM, first compound 3.16 µM) was 36.2% and the viability, T/C (second compound 0.1 µM, first compound 10 µM) was 40.1%. It also gave a viability, T/C [5] of 12.1%, a viability, T/C (second compound 0.316 µM, first compound 0.1 µM) of 11.4% and a viability, T/C [6] of 10.2%. For the same compound, the viability, T/C (second compound 0.316 µM, first compound 1 µM) was 13.8%, the viability, T/C (second compound 0.316 µM, first compound 3.16 µM) was 12.7% and the viability, T/C (second compound 0.316 µM, first compound 10 µM) was 13.3%. The viability, T/C [7] was 6.47%, the viability, T/C (second compound 1 µM, first compound 0.1 µM) was 6.97% and the viability, T/C [8] was 7.01%. For the same compound, the viability, T/C (second compound 1 µM, first compound 1 µM) was 6.54%, the viability, T/C (second compound 1 µM, first compound 3.16 µM) was 6.3% and the viability, T/C (second compound 1 µM, first compound 10 µM) was 7.05%. The viability, T/C [9] was 5.3%, the viability, T/C (second compound 3.16 µM, first compound 0.1 µM) was 4.93% and the viability, T/C [10] was 4.77%. The viability, T/C (second compound 3.16 µM, first compound 1 µM) was 5.55%, the viability, T/C (second compound 3.16 µM, first compound 3.16 µM) was 5.79% and the viability, T/C (second compound 3.16 µM, first compound 10 µM) was 5.35%. For the same compound, the viability, T/C [11] was 0.13%, the viability, T/C (second compound 10 µM, first compound 0.1 µM) was 0.18% and the viability, T/C [12] was 0.17%. It also gave a viability, T/C (second compound 10 µM, first compound 1 µM) of 0.17%, a viability, T/C (second compound 10 µM, first compound 3.16 µM) of 0.51% and a viability, T/C (second compound 10 µM, first compound 10 µM) of 0.38%.

`Cn1ncnc1[C@H]1c2n[nH]c(=O)c3cc(F)cc(c23)N[C@@H]1c1ccc(F)cc1` + Cc1cnc(CNC(=O)c2c(=O)c3ccc(N4CCCN(C)CC4)nc3n3c2sc2ccccc23)cn1 showed an IC50 (second compound 0.0316 µM) of 19.9 nM, an IC50 (second compound 0.1 µM) of less than 0.999 nM and an IC50 (second compound 0.316 µM) of less than 0.999 nM. The IC50 (second compound 1 µM) was less than 0.999 nM, the IC50 (second compound 3.16 µM) was less than 0.999 nM and the IC50 (second compound 10 µM) was less than 0.999 nM. The viability, T/C (second compound 0.0316 µM, first compound 0.000999 µM) was 110%, the viability, T/C (second compound 0.0316 µM, first compound 0.00316 µM) was 98.6% and the viability, T/C (second compound 0.0316 µM, first compound 0.00999 µM) was 85.6%. The viability, T/C [1] was 25.9%, the viability, T/C (second compound 0.0316 µM, first compound 0.0999 µM) was 12.9% and the viability, T/C [2] was 7.23%. It also gave a viability, T/C (second compound 0.1 µM, first compound 0.000999 µM) of 42.7%, a viability, T/C (second compound 0.1 µM, first compound 0.00316 µM) of 25.4% and a viability, T/C (second compound 0.1 µM, first compound 0.00999 µM) of 17.3%. It also gave a viability, T/C [3] of 12.5%, a viability, T/C (second compound 0.1 µM, first compound 0.0999 µM) of 5.67% and a viability, T/C [4] of 3.67%. It also gave a viability, T/C (second compound 0.316 µM, first compound 0.000999 µM) of 13.8%, a viability, T/C (second compound 0.316 µM, first compound 0.00316 µM) of 10% and a viability, T/C (second compound 0.316 µM, first compound 0.00999 µM) of 7.01%. For the same compound, the viability, T/C [5] was 6.26%, the viability, T/C (second compound 0.316 µM, first compound 0.0999 µM) was 4.34% and the viability, T/C [6] was 2.5%. It also gave a viability, T/C (second compound 1 µM, first compound 0.000999 µM) of 5.61%, a viability, T/C (second compound 1 µM, first compound 0.00316 µM) of 5.81% and a viability, T/C (second compound 1 µM, first compound 0.00999 µM) of 4.63%. For the same compound, the viability, T/C [7] was 3.57%, the viability, T/C (second compound 1 µM, first compound 0.0999 µM) was 2.89% and the viability, T/C [8] was 1.85%. For the same compound, the viability, T/C (second compound 3.16 µM, first compound 0.000999 µM) was 4.32%, the viability, T/C (second compound 3.16 µM, first compound 0.00316 µM) was 4.8% and the viability, T/C (second compound 3.16 µM, first compound 0.00999 µM) was 3.43%. The viability, T/C [9] was 2.17%, the viability, T/C (second compound 3.16 µM, first compound 0.0999 µM) was 0.89% and the viability, T/C [10] was 0.51%. It also gave a viability, T/C (second compound 10 µM, first compound 0.000999 µM) of 0.1%, a viability, T/C (second compound 10 µM, first compound 0.00316 µM) of 0.15% and a viability, T/C (second compound 10 µM, first compound 0.00999 µM) of 0.12%. The viability, T/C [11] was 0.13%, the viability, T/C (second compound 10 µM, first compound 0.0999 µM) was 0.66% and the viability, T/C [12] was 0.13%.

From PubChem BioAssay AID2060488 (Molecular Pharmacology Branch, DTP, NCI, 2025)
